Results as given in patent publication US11566002B2, “Substituted tetrahydrocyclopenta[C]pyrroles, substituted dihydropyrrolizines, analogues thereof, and methods using same” (priority 2018, dated 2023).
Like-named read-outs stand apart in the source and are kept apart here.

Tested on: HBV rcDNA
Experiment: HepDE19 assay with bDNA quantitation of HBV rcDNA
Type: cell-based, hepatitis B virus
In short: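 HepDE19 cells (50,000/well) switched to Tet-free medium, then treated 7 days at 37° C with compounds from 25 μM (½-log, 8-point, duplicate; 0.5% DMSO). rcDNA quantified by bDNA with HBV probes; EC50/EC90 by 4-parameter fit. CC50 from CTG ATP on 5,000 cells/well after 4 days.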

[1] = HepDE19 cells, Tet-free medium, 7 day-incubation, rcDNA measured by Quantigene 2.0 bDNA assay, top concentration 25 μM; read-out: DE-19 bDNA EC50

SMILES	EC50 [1] [nM]	other results
Cn1cnc(COC(=O)NC2CCc3c2cn(C)c3C(=O)Nc2ccc(F)c(F)c2)n1 (single isomer, unassigned) [Compound 64, (1-methyl-1H-1,2,4-triazol-3-yl)methyl (1-((3,4-difluorophenyl)carbamoyl)-2-methyl-2,4,5,6-tetrahydrocyclopenta[c]pyrrol-4-yl)carbamate]	–	EC50 (Hepatitis B virus, HepDE19, 168 h, HepDE19 cells, Tet-free medium, 7 day-incubation, rcDNA measured by Quantigene 2.0 bDNA assay, top concentration 25 μM; read-out: DE-19 bDNA EC50): 410 nM
Cn1c(Cl)c2c(c1C(=O)Nc1ccc(F)c(Cl)c1)CCCC2NC(=O)OCc1cn[nH]n1 (single isomer, unassigned) [Compound 137, (2H-1,2,3-Triazol-4-yl)methyl (3-chloro-1-((3-chloro-4-fluorophenyl)carbamoyl)-2-methyl-4,5,6,7-tetrahydro-2H-isoindol-4-yl)carbamate]	160	–
CCn1cc2c(c1C(=O)Nc1ccc(F)c(Cl)c1)CCC2NC(=O)OCc1ccn(C)n1 (single isomer, unassigned) [Compound 28, (1-Methyl-1H-pyrazol-3-yl)methyl (1-((3-chloro-4-fluorophenyl)carbamoyl)-2-ethyl-2,4,5,6-tetrahydrocyclopenta[c]pyrrol-4-yl)carbamate]	230	–
COC(=O)NC1CCc2c1cn(C)c2C(=O)Nc1ccc(F)c(Cl)c1 (single isomer, unassigned) [Compound 5, Methyl 1-(3-chloro-4-fluorophenylcarbamoyl)-2-methyl-2,4,5,6-tetrahydrocyclopenta[c] pyrrol-4-ylcarbamate]	–	EC50 (read-out: DE-19 bDNA EC50; HepDE19 cells, Tet-free medium, 7 day-incubation, rcDNA measured by Quantigene 2.0 bDNA assay, top concentration 25 μM): 990 nM
C#CCOC(=O)NC1CCc2c1cn(C)c2C(=O)Nc1ccc(F)c(Cl)c1 (single isomer, unassigned) [Compound 102, Prop-2-yn-1-yl (1-((3-chloro-4-fluorophenyl)carbamoyl)-2-methyl-2,4,5,6-tetrahydrocyclopenta[c]pyrrol-4-yl)carbamate]	20	–
Cn1cc2c(c1C(=O)Nc1ccc(F)c(Cl)c1)CCC2NC(=O)OC[C@H]1CCC(=O)N1 (single isomer, unassigned) [Compound 120]	210	–
